# Experimental data taken from US20100168067A1, “BIOMARKERS FOR BISPHOSPHONATE-RESPONSIVE BONE DISORDERS” (UCL BUSINESS PLC, priority 2006, published 2010).
# System: total hip mineralisation in subjects treated for OP
# [1] = response by genotype TT vs TG/GG at rs2297480, annualised change in total hip densitometry, 95% CI in brackets
# Procedure: Genetic samples were obtained from subjects enrolled in an ongoing clinical programme for treatment of OP through the use of regular intravenous Pamidronate (30 mg three monthly).
# By such methodology, 53 subjects (each with two densitometric estimates taken in the first 24 month of Pamidronate therapy) were respectively assigned drug response phenotypes according to their display of ongoing demineralisation (‘response failure’) or stable or improving mineralising (‘response success’). This was achieved by comparison of derived annualised rates of change in projected densitometric estimates of total hip mineralisation.
# DNA was extracted from blood samples using standard organic phase methods and PCR amplification and DNA sequencing was carried out using standard protocols (dye-terminator sequencing using an ABI3100 automated DNA sequencer).
smiles,measurement,setting,value
NCCC(O)(P(=O)(O)O)P(=O)(O)O [Pamidronate],number of subjects with 'response failure' (ongoing demineralisation),"TT genotype at rs2297480, intravenous Pamidronate 30 mg three monthly, first 24 months, 53 subjects",2
same,odds ratio for the >-2.7 cutoff,[1],12.0833 (95% CI: 2.2961 to 63.5874)
same,odds ratio for the pos/neg cutoff,[1],3.1818 (95% CI: 1.0192 to 9.9327)
